What was measured:
Assay in all cases: radiometric filter-binding kinase assay
[1] = molecular target: MAP3K5 (human) (UniProt Q99683)
[2] = molecular target: STK11 CAB39 STRADA (human) (UniProt Q9Y376+Q7RTN6+Q15831)
[3] = molecular target: MAP3K7 TAB1 (human) (UniProt Q15750+O43318)
[4] = molecular target: MELK (human) (UniProt Q14680)
[5] = molecular target: PAK4 (human) (UniProt O96013)
[6] = molecular target: AURKA (human) (UniProt O14965)
[7] = molecular target: MAP3K1 (human) (UniProt Q13233)
[8] = molecular target: MAP2K6 (human) (UniProt P52564)
[9] = molecular target: MAP2K2 (human) (UniProt P36507)
[10] = molecular target: HIPK3 (human) (UniProt Q9H422)
[11] = molecular target: NUAK1 (human) (UniProt O60285)
[12] = tested on: AKT1 (human), P31749 [S473D]
[13] = molecular target: BRSK1 (human) (UniProt Q8TDC3)
[14] = molecular target: NTRK1 (human) (UniProt P04629)
[15] = molecular target: PRKCZ (human) (UniProt Q05513)
[16] = molecular target: ERBB4 (human) (UniProt Q15303)
[17] = molecular target: PAK6 (human) (UniProt Q9NQU5)
[18] = molecular target: MST4 (human) (UniProt Q9P289)
[19] = molecular target: MAPK12 (human) (UniProt P53778)
[20] = molecular target: IRAK4 (human) (UniProt Q9NWZ3)
[21] = molecular target: PRKCA (human) (UniProt P17252)
[22] = molecular target: MARK4 (human) (UniProt Q96L34)
[23] = molecular target: MAPKAPK2 (human) (UniProt P49137)
[24] = molecular target: MAP3K9 (human) (UniProt P80192)
[25] = molecular target: EEF2K (human) (UniProt O00418)
[26] = molecular target: MARK1 (human) (UniProt Q9P0L2)
[27] = molecular target: INSR (human) (UniProt P06213)
[28] = molecular target: DYRK2 (human) (UniProt Q92630)
[29] = molecular target: PKN2 (human) (UniProt Q16513)
[30] = molecular target: MAPK9 (human) (UniProt P45984)
[31] = molecular target: MARK2 (human) (UniProt Q7KZI7)
[32] = molecular target: PIM1 (human) (UniProt P11309)
[33] = molecular target: MAP3K11 (human) (UniProt Q16584)
[34] = molecular target: EPHB3 (human) (UniProt P54753)
[35] = molecular target: GSK3B (human) (UniProt P49841)
[36] = molecular target: EPHA2 (human) (UniProt P29317)

MARK2 (human), sequence (Q7KZI7 whole entry, looked up): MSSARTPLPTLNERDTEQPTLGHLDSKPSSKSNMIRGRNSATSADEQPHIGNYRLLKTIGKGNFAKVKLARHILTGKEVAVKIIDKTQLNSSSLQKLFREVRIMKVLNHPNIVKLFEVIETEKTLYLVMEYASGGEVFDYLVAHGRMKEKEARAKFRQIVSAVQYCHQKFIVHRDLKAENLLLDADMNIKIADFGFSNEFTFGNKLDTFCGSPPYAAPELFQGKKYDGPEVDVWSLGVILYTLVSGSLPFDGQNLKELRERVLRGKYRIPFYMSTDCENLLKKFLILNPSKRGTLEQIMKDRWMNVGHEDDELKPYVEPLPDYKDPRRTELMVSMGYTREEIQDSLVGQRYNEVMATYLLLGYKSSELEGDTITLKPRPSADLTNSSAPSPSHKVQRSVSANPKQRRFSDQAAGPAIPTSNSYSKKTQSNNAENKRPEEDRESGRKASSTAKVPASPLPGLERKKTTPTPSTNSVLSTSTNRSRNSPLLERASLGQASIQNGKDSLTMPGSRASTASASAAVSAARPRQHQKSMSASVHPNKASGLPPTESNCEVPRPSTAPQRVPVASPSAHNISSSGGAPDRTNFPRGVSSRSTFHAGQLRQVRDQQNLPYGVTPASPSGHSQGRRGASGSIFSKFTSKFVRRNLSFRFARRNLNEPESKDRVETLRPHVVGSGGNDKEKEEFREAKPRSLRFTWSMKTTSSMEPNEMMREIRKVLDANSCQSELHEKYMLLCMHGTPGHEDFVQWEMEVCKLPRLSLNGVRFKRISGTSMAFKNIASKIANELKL
MAP3K11 (human), sequence (Q16584 whole entry, looked up): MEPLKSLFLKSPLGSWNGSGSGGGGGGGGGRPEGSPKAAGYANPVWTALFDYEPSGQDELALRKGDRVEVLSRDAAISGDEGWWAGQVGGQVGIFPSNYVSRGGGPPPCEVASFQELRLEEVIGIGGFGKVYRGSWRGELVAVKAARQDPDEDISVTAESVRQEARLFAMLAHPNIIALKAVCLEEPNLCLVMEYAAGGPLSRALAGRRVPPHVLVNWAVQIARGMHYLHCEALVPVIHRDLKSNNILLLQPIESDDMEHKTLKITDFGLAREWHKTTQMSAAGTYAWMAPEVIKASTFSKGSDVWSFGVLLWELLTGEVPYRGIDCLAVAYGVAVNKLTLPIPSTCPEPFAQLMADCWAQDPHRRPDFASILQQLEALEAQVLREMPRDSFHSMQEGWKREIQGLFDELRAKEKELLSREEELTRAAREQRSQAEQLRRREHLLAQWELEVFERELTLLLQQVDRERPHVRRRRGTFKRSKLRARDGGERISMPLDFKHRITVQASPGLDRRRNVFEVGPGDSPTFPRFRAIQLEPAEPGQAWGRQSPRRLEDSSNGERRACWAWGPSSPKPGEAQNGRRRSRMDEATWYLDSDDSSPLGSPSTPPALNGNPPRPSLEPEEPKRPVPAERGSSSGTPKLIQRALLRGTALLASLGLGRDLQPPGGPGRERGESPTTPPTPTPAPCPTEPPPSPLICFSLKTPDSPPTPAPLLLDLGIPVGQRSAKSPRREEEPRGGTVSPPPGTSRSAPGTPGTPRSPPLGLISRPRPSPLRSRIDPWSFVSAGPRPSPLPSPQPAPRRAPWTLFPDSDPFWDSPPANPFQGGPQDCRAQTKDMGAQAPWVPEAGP
MAP3K5 (human), sequence (Q99683 whole entry, looked up): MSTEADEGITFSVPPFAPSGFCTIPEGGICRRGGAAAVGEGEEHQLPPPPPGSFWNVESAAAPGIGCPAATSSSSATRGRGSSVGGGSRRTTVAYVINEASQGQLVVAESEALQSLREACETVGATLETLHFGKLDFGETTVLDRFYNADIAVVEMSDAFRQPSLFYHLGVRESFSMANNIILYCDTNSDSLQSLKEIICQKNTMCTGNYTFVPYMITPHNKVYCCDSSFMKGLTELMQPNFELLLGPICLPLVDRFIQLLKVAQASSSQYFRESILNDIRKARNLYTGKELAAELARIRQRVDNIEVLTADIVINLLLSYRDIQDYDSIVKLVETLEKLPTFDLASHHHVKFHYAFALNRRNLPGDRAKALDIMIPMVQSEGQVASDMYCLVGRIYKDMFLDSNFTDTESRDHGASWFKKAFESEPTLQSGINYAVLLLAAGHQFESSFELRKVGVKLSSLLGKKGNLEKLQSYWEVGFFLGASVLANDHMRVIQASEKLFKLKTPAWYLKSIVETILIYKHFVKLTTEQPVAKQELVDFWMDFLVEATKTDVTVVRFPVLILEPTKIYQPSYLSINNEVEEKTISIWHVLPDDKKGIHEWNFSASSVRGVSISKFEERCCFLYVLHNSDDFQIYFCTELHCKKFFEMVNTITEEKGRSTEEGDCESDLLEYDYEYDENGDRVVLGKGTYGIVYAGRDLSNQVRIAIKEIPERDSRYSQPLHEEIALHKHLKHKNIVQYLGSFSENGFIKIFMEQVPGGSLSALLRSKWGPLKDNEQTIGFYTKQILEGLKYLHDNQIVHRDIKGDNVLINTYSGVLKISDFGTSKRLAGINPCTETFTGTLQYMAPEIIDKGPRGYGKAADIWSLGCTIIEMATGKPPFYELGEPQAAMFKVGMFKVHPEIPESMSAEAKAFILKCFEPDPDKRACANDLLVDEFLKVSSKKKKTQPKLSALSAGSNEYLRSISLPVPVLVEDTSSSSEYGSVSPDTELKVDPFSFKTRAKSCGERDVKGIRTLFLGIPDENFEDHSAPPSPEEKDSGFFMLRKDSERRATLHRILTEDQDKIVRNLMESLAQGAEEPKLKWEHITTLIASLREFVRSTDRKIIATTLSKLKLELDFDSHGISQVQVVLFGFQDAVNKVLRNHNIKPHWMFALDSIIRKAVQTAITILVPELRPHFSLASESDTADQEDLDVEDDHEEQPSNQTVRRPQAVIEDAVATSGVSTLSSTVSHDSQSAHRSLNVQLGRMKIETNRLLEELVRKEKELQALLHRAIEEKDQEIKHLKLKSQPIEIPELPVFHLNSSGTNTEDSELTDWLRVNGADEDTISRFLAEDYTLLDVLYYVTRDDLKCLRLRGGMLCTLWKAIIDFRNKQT
IRAK4 (human), sequence (Q9NWZ3 whole entry, looked up): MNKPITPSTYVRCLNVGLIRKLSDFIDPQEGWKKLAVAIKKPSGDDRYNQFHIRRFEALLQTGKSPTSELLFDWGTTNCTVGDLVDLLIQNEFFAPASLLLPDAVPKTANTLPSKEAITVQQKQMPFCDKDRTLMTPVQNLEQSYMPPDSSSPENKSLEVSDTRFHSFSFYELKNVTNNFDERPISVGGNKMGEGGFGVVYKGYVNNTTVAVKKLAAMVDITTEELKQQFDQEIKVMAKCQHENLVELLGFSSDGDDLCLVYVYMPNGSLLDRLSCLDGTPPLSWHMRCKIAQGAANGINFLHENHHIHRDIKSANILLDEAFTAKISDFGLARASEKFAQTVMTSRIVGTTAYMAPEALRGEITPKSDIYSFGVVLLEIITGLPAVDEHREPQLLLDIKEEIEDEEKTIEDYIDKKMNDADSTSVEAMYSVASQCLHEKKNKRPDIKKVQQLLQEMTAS
AKT1 (human), P31749 [S473D], sequence (P31749 whole entry S473D, looked up): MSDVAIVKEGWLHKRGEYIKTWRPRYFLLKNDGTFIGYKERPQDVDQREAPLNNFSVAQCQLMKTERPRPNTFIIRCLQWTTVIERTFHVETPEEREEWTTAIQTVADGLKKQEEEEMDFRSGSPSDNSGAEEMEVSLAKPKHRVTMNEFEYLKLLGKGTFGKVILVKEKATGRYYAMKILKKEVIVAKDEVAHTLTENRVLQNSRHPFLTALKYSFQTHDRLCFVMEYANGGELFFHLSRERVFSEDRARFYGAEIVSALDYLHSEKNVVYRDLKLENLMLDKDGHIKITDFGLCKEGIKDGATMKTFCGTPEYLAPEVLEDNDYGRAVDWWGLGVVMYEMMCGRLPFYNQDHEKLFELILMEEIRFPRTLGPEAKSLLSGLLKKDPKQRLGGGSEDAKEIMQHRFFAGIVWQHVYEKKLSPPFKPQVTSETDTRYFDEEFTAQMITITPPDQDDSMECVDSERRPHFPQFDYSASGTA
MAPK12 (human), sequence (P53778 whole entry, looked up): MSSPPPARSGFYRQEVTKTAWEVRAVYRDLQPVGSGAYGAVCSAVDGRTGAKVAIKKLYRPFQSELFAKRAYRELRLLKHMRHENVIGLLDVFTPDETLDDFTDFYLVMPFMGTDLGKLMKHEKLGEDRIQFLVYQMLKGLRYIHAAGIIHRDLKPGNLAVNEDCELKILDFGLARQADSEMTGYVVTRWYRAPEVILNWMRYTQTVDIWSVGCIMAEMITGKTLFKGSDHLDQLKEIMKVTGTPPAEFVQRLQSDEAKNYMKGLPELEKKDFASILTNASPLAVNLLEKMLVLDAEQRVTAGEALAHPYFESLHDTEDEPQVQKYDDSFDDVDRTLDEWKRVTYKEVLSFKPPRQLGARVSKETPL
PAK4 (human), sequence (O96013 whole entry, looked up): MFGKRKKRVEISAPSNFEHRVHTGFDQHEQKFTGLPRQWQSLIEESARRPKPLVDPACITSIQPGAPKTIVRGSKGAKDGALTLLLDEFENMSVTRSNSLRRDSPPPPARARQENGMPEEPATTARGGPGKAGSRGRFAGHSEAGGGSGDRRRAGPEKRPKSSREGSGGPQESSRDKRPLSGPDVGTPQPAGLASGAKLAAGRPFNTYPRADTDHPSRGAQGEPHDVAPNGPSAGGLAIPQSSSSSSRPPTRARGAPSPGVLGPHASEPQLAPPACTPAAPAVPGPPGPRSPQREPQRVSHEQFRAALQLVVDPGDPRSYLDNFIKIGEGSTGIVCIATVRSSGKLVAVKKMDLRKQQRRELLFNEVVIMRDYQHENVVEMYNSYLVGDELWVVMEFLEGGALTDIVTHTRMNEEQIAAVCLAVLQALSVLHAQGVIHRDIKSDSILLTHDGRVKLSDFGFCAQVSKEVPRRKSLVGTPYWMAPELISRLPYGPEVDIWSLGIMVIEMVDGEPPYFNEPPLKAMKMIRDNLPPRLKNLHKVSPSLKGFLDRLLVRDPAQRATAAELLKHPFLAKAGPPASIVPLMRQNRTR

O=S(=O)(c1ccc(F)c2nonc12)N1CCN(c2ncc(C(F)(F)F)cc2Cl)CC1
residual activity ([1]; compound 10.0 µM): 101% | residual activity ([2]; compound 10.0 µM): 97% | residual activity ([3]; compound 10.0 µM): 98% | residual activity ([4]; compound 10.0 µM): 107% | residual activity ([5]; compound 10.0 µM): 83% | residual activity ([6]; compound 10.0 µM): 99% | residual activity ([7]; compound 10.0 µM): 85% | residual activity ([8]; compound 10.0 µM): 95% | residual activity ([9]; compound 10.0 µM): 99% | residual activity ([10]; compound 10.0 µM): 101% | residual activity ([11]; compound 10.0 µM): 90% | residual activity ([12]; compound 10.0 µM): 97% | residual activity ([13]; compound 10.0 µM): 109% | residual activity ([14]; compound 10.0 µM): 103% | residual activity ([15]; compound 10.0 µM): 94% | residual activity ([16]; compound 10.0 µM): 105% | residual activity ([17]; compound 10.0 µM): 109% | residual activity ([18]; compound 10.0 µM): 104% | residual activity ([19]; compound 10.0 µM): 72% | residual activity ([20]; compound 10.0 µM): 66% | residual activity ([21]; compound 10.0 µM): 82% | residual activity ([22]; compound 10.0 µM): 85% | residual activity ([23]; compound 10.0 µM): 86% | residual activity ([24]; compound 10.0 µM): 108% | residual activity ([25]; compound 10.0 µM): 79% | residual activity ([26]; compound 10.0 µM): 109% | residual activity ([27]; compound 10.0 µM): 93% | residual activity ([28]; compound 10.0 µM): 107% | residual activity ([29]; compound 10.0 µM): 69% | residual activity ([30]; compound 10.0 µM): 87% | residual activity ([31]; compound 10.0 µM): 95% | residual activity ([32]; compound 10.0 µM): 88% | residual activity ([33]; compound 10.0 µM): 89% | residual activity ([34]; compound 10.0 µM): 86% | residual activity ([35]; compound 10.0 µM): 85%

CN1CCN(CCOc2cc(OC3CCOCC3)c3c(Nc4c(Cl)ccc5c4OCO5)ncnc3c2)CC1
residual activity ([1]; compound 0.1 µM): 100% | residual activity ([2]; compound 0.1 µM): 112% | residual activity ([3]; compound 0.1 µM): 115% | residual activity ([4]; compound 0.1 µM): 106% | residual activity ([5]; compound 0.1 µM): 99% | residual activity ([6]; compound 0.1 µM): 112% | residual activity ([7]; compound 0.1 µM): 84% | residual activity ([8]; compound 0.1 µM): 100% | residual activity ([9]; compound 0.1 µM): 107% | residual activity ([10]; compound 0.1 µM): 101% | residual activity ([11]; compound 0.1 µM): 95% | residual activity ([12]; compound 0.1 µM): 99% | residual activity ([13]; compound 0.1 µM): 94% | residual activity ([14]; compound 0.1 µM): 93% | residual activity ([15]; compound 0.1 µM): 101% | residual activity ([16]; compound 0.1 µM): 67% | residual activity ([17]; compound 0.1 µM): 90% | residual activity ([18]; compound 0.1 µM): 104% | residual activity ([19]; compound 0.1 µM): 94% | residual activity ([20]; compound 0.1 µM): 100% | residual activity ([21]; compound 0.1 µM): 100% | residual activity ([22]; compound 0.1 µM): 95% | residual activity ([24]; compound 0.1 µM): 86% | residual activity ([25]; compound 0.1 µM): 65% | residual activity ([36]; compound 0.1 µM): 55% | residual activity ([26]; compound 0.1 µM): 101% | residual activity ([27]; compound 0.1 µM): 90% | residual activity ([28]; compound 0.1 µM): 109% | residual activity ([29]; compound 0.1 µM): 103% | residual activity ([30]; compound 0.1 µM): 88% | residual activity ([31]; compound 0.1 µM): 90% | residual activity ([32]; compound 0.1 µM): 116% | residual activity ([33]; compound 0.1 µM): 85% | residual activity ([34]; compound 0.1 µM): 89% | residual activity ([35]; compound 0.1 µM): 101%

Nc1cccc2c1CN(C1CCC(=O)NC1=O)C2=O (configuration not stated)
residual activity ([1]; compound 1.0 µM): 102% | residual activity ([1]; compound 10.0 µM): 101% | residual activity ([2]; compound 1.0 µM): 116% | residual activity ([2]; compound 10.0 µM): 112% | residual activity ([3]; compound 1.0 µM): 99% | residual activity ([3]; compound 10.0 µM): 104% | residual activity ([4]; compound 1.0 µM): 94% | residual activity ([4]; compound 10.0 µM): 90% | residual activity ([5]; compound 1.0 µM): 102% | residual activity ([5]; compound 10.0 µM): 107% | residual activity ([6]; compound 1.0 µM): 113% | residual activity ([6]; compound 10.0 µM): 100% | residual activity ([7]; compound 1.0 µM): 101% | residual activity ([7]; compound 10.0 µM): 97% | residual activity ([8]; compound 1.0 µM): 93% | residual activity ([8]; compound 10.0 µM): 100% | residual activity ([9]; compound 1.0 µM): 83% | residual activity ([9]; compound 10.0 µM): 81% | residual activity ([11]; compound 1.0 µM): 99% | residual activity ([12]; compound 1.0 µM): 88% | residual activity ([12]; compound 10.0 µM): 91% | residual activity ([13]; compound 1.0 µM): 84% | residual activity ([13]; compound 10.0 µM): 94% | residual activity ([14]; compound 10.0 µM): 141% | residual activity ([15]; compound 1.0 µM): 100% | residual activity ([15]; compound 10.0 µM): 108% | residual activity ([16]; compound 10.0 µM): 106% | residual activity ([17]; compound 1.0 µM): 102% | residual activity ([17]; compound 10.0 µM): 104% | residual activity ([18]; compound 1.0 µM): 106% | residual activity ([18]; compound 10.0 µM): 112% | residual activity ([19]; compound 1.0 µM): 109% | residual activity ([19]; compound 10.0 µM): 108% | residual activity ([20]; compound 1.0 µM): 107% | residual activity ([20]; compound 10.0 µM): 110% | residual activity ([21]; compound 1.0 µM): 107% | residual activity ([21]; compound 10.0 µM): 100% | residual activity ([22]; compound 10.0 µM): 90% | residual activity ([23]; compound 1.0 µM): 79% | residual activity ([23]; compound 10.0 µM): 92% | residual activity ([24]; compound 1.0 µM): 99% | residual activity ([24]; compound 10.0 µM): 99% | residual activity ([25]; compound 1.0 µM): 94% | residual activity ([25]; compound 10.0 µM): 82% | residual activity ([36]; compound 10.0 µM): 96% | residual activity ([26]; compound 1.0 µM): 98% | residual activity ([26]; compound 10.0 µM): 100% | residual activity ([27]; compound 10.0 µM): 107% | residual activity ([28]; compound 1.0 µM): 101% | residual activity ([28]; compound 10.0 µM): 103% | residual activity ([29]; compound 1.0 µM): 93% | residual activity ([29]; compound 10.0 µM): 88% | residual activity ([30]; compound 1.0 µM): 100% | residual activity ([30]; compound 10.0 µM): 102% | residual activity ([31]; compound 1.0 µM): 99% | residual activity ([31]; compound 10.0 µM): 104% | residual activity ([32]; compound 1.0 µM): 93% | residual activity ([32]; compound 10.0 µM): 87% | residual activity ([33]; compound 1.0 µM): 92% | residual activity ([33]; compound 10.0 µM): 98% | residual activity ([34]; compound 10.0 µM): 102% | residual activity ([35]; compound 10.0 µM): 92%
